In patent publication US20260152533A1, “COMBINATION INHIBITORS FOR TREATING FIBROSIS” (Memorial Sloan-Kettering Cancer Center, priority 2021, published 2026):

Tested on: mammary fibroblasts (MFBs)
Test: Western blot of MFBs
Type: cell-based, mouse
Details: TGFβ
Excerpt: NIH-3T3 cells were obtained from ATCC (CRL-1658); 293 T cells were obtained from ATCC (CRL-3216). PSCs were isolated from C57BL/6 mice by differential centrifugation as previously described^49 and their mesenchymal origin was validated by analyzing the expression of various mesenchymal and epithelial markers. MFBs were isolated from FVB/N mice by differential centrifugation as previously described^50. DB7 mouse breast cancer cells were obtained from Alexander Borowsky (University of California Davis Comprehensive Cancer Center, Sacramento, CA, USA) through an MTA to Ohio State University (OSU). KPC (Kras^LSL-G12D; Trp53^LSL-R172H; Pdx1-Cre) mouse PDAC cells were a gift from Scott Lowe (Memorial Sloan Kettering Cancer Center. (MSKCC)). […]
Lysates were generated by incubating cells or ground tumors in RIPA buffer (Millipore); […] of cleared lysate were analyzed by SDS-polyacrylamide gel electrophoresis (SDS-PAGE) as previously described^11. […] Quantification of band intensities of collagen I relative to […] or vinculin in tumor allograft experiments was performed with Image Lab software v6.0 (Bio-Rad).

## TGFβ: transforming growth-factor beta; TGFβ-1 purchased from Peprotech
20% Gln, 48 hours
  collagen I production: unable to proliferate and produce collagen I
Low Gln (20%), 48 hours (FIG. 8K)
  GCN2 phosphorylation: showed GCN2 phosphorylation
